Test results from PMC4710668, “Bioactivation of food genotoxicants 5-hydroxymethylfurfural and furfuryl alcohol by sulfotransferases from human, mouse and rat: a comparative study” (Archives of Toxicology, 2014).

Columns and labels:
[1] = biological target: T1, mSult1c2 (Mus musculus, UniProt Q9D939); test: FFA sulfoconjugation assay (N6-MF-A formation with adenosine as scavenger); assay type: biochemical
T1 construct: made in house; host or cells: Salmonella typhimurium TA1538 (cytosolic fraction, enzyme not purified)
Protocol: (§1) Cytosolic fractions containing individual SULT forms were prepared from transgenic S. typhimurium TA1538. Table S1 in the Supplementary Material provides a summary of the thirty SULTs used in the current study together with references describing the cloning of the respective S. typhimurium TA1538 strains. The expressed SULT forms are denoted with the prefixes h, m and r for human, mouse and rat enzymes, respectively. Bacteria were grown in Luria Broth medium containing ampicillin (100 µg/ml) by stirring for 8 h at 200 revolutions/min at 37 °C. The bacterial suspensions were centrifuged at 5,000 g for 10 min. The sediments were washed twice with 25 ml of 10 mM potassium phosphate buffer (pH 7.4)/50 mM potassium chloride (KCP buffer) and centrifuged again. The pellets were taken up in 800 µl KCP buffer and sonicated thrice for 15 s with 30 s pauses in between. The soluble fraction was attained by centrifuging for 1 h at 100,000 g. The supernatants (in the following termed cytosolic preparations) were frozen at −80 °C. The protein concentrations were determined according to a bicinchoninic acid (BCA) assay protocol. The SULT concentrations in the cytosolic preparations were estimated after electrophoretic separation and immunodetection using inclusion bodies of different SULT forms as standards (Teubner et al. [2007]). The preparation of SULT inclusion bodies and the immunodetection of SULTs is described in the Supplementary Material, which also contains a representative immunoblot of different amounts of rSult1a1standard and a cytosolic preparation of S. typhimurium expressing rSult1a1 (Fig. S1).
The reaction mixtures were prepared as described for HMF. In addition, they contained 10 mM adenosine as a nucleophilic scavenger. Following incubation for 20 min at 37 °C, sulfoconjugation reactions were stopped by adding 100 µl cold methanol containing 175 fmol of [^15N5]N ^6-MF-A as the internal standard, mixed and centrifuged at 15,000 g for 10 min. The clear supernatants were subjected to UPLC-MS/MS analyses. Incubations were performed as quadruplicates. At higher concentrations, FFA reacts spontaneously with adenosine at low, but detectable, levels. To correct for the SULT-independent adduct formation, mixtures with SULT-deficient cytosols were carried along simultaneously in duplicate. Controls were subtracted from the experimental samples.
The ribonucleoside adduct N ^6-((furan-2-yl)methyl)-adenosine (N ^6-MF-A) was analyzed by isotope-dilution UPLC-MS/MS with the same system described above using a HSS T3 column (1.8 µm, 2.1 × 100 mm, Waters). Samples of 8 µl were eluted with 10 mM ammonium bicarbonate buffer, pH 8.0 (A) and methanol (B) using an 6-min gradient from 98 % solvent A to 15 % solvent A at 0.35 ml/min flow rate (Yin et al. [2013]). The electrospray interface of the mass spectrometer operated in the positive ion mode. The fragmentations of N ^6-MF-A into the aglycone cation [N ^6-((furan-2-yl)methyl)-adenine-H]^+ (m/z = 348.1 → 216.1), the cleavage of the 2-methylfuranyl cation (m/z = 348.1 → 81.0) and the release of [N ^6-methyl-adenine-H]^+ (m/z = 348.1 → 148.0) were monitored together with the corresponding fragmentations of the isotope-labeled internal standard [^15N5]N ^6-MF-A for the formation of the aglycone (m/z = 353.1 → 221.1), the 2-methylfuran cation (m/z = 353.1 → 81.0) and ^15N5-labeled N ^6-methyl-adenine (m/z = 353.1 → 153.0). The N ^6-MF-A content of the incubation mixture was calculated from the ratio of peak areas resulting from the total ion current of all three MRM signals of the analyte. For the fragmentation of N ^6-MF-A ([^15N5]N ^6-MF-A), collision energies were 20, 25 and 35 eV for the transitions m/z = 348.1 → 216.1 (m/z = 353.1 → 221.1), m/z = 348.1 → 148.0 (m/z = 353.1 → 153.0) and m/z = 348.1 → 81.0 (m/z = 353.1 → 81.0), respectively. […]

[2] = test system: rSult2a4; test: HMF sulfoconjugation assay; assay type: biochemical, rat
Protocol: as §1
(§2) The reactions were conducted in mixtures of 100 µl containing 25–200 µg protein, 50 mM potassium phosphate buffer (pH 7.4), 5 mM MgCl2, 50 µM PAPS and different concentrations of HMF at 37 °C. Preliminary experiments ensured that measurements were recorded under ‘linear’ conditions, i.e., doubling of protein concentration or incubation time was doubling the amount of sulfate ester formed. The reactions were stopped after 30 min by adding 300 µl ice-cold 2-propanol, mixed and centrifuged at 15,000 g for 10 min.
(§3) SMF concentrations of the clear supernatants were analyzed by UPLC-MS/MS. The protocol was adapted from the quantification of SMF in plasma samples of HMF-treated mice (Monien et al. [2009]). In short, the supernatants were analyzed using a UPLC system (Waters) connected to a Quattro Premier XE tandem quadrupole mass spectrometer (Waters) using the negative electrospray ionization mode. Samples of 4 µl were injected into a HSS T3 column (1.8 µm, 2.1 × 100 mm; Waters) and eluted with an isocratic flow of 0.35 ml/min 10 mM ammonium acetate/methanol (95:5). The fragmentation reactions of SMF yielding two principal ions, the sulfate ion radical (m/z = 204.9 → 96.0) and the protonated sulfonate ion (m/z = 204.9 → 81.0) were monitored. The tune parameters were as follows: temperature of the electrospray source 120 °C; desolvation temperature 475 °C; desolvation gas nitrogen (800 l/h); cone gas nitrogen (100 l/h); collision gas argon (indicated cell pressure ~5 × 10^−3 mbar). For the fragmentation of SMF, collision energies were 20 and 23 eV for the transitions m/z = 204.9 → 81.0 and m/z = 204.9 → 96.0, respectively. The dwell time was set to 100 ms, and capillary voltage was set to 0.35 kV. The cone and RF1 lens voltages were 32 and 0.2 V, respectively. SMF was quantified using an external calibration line that was linear in the concentration range of 1.0 nM (4 fmol/injection) to 2,500 (10 pmol/injection) SMF (r ^2 ≥ 0.99). Data acquisition and handling were performed with MassLynx 4.1 software (Waters). The limit of detection (LOD) for this technique of 2.5 nM SMF has been reported (Monien et al. [2009]). In the current study, this corresponds to 10 fmol SMF per injection or a reaction rate of 0.5 pmol SMF/mg/min.

[3] = test system: rSult2a3; test: HMF sulfoconjugation assay; assay type: biochemical, rat
Protocol: as §1, §2, §3

T1 sequence (Q9D939 whole entry): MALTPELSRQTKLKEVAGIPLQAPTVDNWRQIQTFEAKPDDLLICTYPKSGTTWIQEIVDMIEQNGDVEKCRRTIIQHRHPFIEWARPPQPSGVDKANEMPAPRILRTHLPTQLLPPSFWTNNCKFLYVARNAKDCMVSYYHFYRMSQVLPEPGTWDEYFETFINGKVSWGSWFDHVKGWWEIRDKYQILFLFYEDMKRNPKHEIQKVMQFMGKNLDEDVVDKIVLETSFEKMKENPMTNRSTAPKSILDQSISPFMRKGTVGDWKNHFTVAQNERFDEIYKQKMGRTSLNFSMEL

| SMILES | Rate of N6-MF-A formation ([1]; 0.1 mM FFA) | Rate of N6-MF-A formation ([1]; 1 mM FFA) | Rate of N6-MF-A formation ([1]; 10 mM FFA) | Rate of sulfoconjugation ([2]; 0.1 mM HMF) | Rate of sulfoconjugation ([2]; 1 mM HMF) | Rate of sulfoconjugation ([2]; 10 mM HMF) | Rate of sulfoconjugation ([2]; 100 mM HMF) | Rate of sulfoconjugation ([3]; 0.1 mM HMF) | Rate of sulfoconjugation ([3]; 1 mM HMF) | Rate of sulfoconjugation ([3]; 10 mM HMF) | Rate of sulfoconjugation ([3]; 100 mM HMF) |
| --- | --- | --- | --- | --- | --- | --- | --- | --- | --- | --- | --- |
| OCc1ccco1 [FFA, furfuryl alcohol] | <18 fmol N ^6-MF-A/mg/min | <20 fmol N ^6-MF-A/mg/min | <44 fmol N ^6-MF-A/mg/min | – | – | – | – | – | – | – | – |
| O=Cc1ccc(CO)o1 [HMF, 5-Hydroxymethylfurfural] | – | – | – | <0.5 pmol/mg/min | <0.5 pmol/mg/min | <0.5 pmol/mg/min | <0.5 pmol/mg/min | 0.6 ± 0.0 pmol/mg/min | 6.2 ± 0.2 pmol/mg/min | 62.8 ± 4.6 pmol/mg/min | 76.5 ± 8.8 pmol/mg/min |
